Test [1] has as its target HEK-293 cells expressing human recombinant adenosine A2A receptor (Homo sapiens (Human), UniProt P29274). The test can be described thus: cAMP assay (Assay 2), A2A receptor. The test is classed as cell-based. As for the experimental part:
(§1) The functional activity of compounds was tested using Assay 2, below, to detect the presence of cAMP. Assay 1 is an alternative assay for this purpose. Activation of G-protein coupled receptors (such as A2A) results in activation of adenylyl cyclase which converts ATP into cAMP which is used as a downstream signaling molecule. Therefore, molecules which act as GPCR (or specifically A2A receptor) antagonists cause a decrease in intracellular cAMP concentration.
(§2) Assay 2 (Table B2): This assay used HEK-293 cells expressing human recombinant adenosine A2A receptor (or, alternatively, A1 receptor) that were grown prior to the test in media without antibiotic. 100 nL of test articles at 100x of final concentration were transferred to assay plate by Echo. Cells were washed twice with 5 mL of PBS and 10 μL of cells were mixed with 5 mL PBS. After aspirating the PBS and adding 1.5 mL versine, cells were incubated at 37° C. for 2-5 min. After centrifugation, 4 mL of medium was added and adjusted cell density to 5,000 cells/well with Stimulation Buffer. 10 μL of cells were aliquoted to the assay plate, centrifuged at 1000 rpm for 1 minute, and incubated for 60 minutes at room temperature. 5 μL 4× Eu-cAMP tracer solution and 5 μL 4× Ulight™-anti-cAMP solution were added to assay plate, followed by centrifugation and 60-minute incubation at room temperature. Plates were read on EnVision.
(In general: cAMP levels reflect the balance of adenylyl cyclase and phosphodiesterase activity.)

In test [2] the target is HEK-293 cells expressing human recombinant adenosine A1 receptor (Homo sapiens (Human), UniProt P30542). The test can be described thus: cAMP assay (Assay 2), A1 receptor. The test is classed as cell-based. As for the experimental part: as §1, §2
For test [3], the target named is adenosine A2a (human) membrane (Homo sapiens (Human), UniProt P29274). The test can be described thus: A2A adenosine receptor radioligand binding assay ([3H] CGS-21680). As to conditions: radioligand [3H] CGS-21680 6 nM. As for the experimental part: A second A2A adenosine receptor radioligand binding assay protocol was used. The protocol used adenosine A2a (human) membrane (PerkinElmer RBHA2AM400UA) at a concentration of 5 μg/well/100 μl and the radioligand [3H] CGS-21680 (Cat No. PerkinElmer-NET1021250UC) at a final concentration of 6 nM. Testing compounds were diluted with DMSO to make 8-point 4-fold serial dilution, starting at 0.2 mM. CGS-15943 was the reference compound. 1 μl of compounds/high control/low control was transferred to the assay plate according to a plate map, followed by 100 μl of membrane stocks and 100 μl of radioligand, in assay buffer (50 mM Tris-HCl, 10 mM MgCl2, 1 mM EDTA, pH 7.4). The plate was sealed and incubated at RT for 2 hours. Unifilter-96 GF/C filter plates (Perkin Elmer Cat #6005174) were soaked with 50 μl of 0.3% PEI per well for at least 0.5 hour at room temperature. When the binding assays were completed, the reaction mixtures were filtered through GF/C plates using Perkin Elmer Filtermate Harvester, and each plate washed 4 times with cold wash buffer (50 mM Tris-HCl, 154 mM NaCl, pH 7.4). The filter plates were dried for 1 hour at 50 degrees. After drying, the bottom of the filter plate wells was sealed, 50 μl of Perkin Elmer Microscint 20 cocktail was added, and the top of the filter plate was sealed. ^3H trapped on the filter was counted using Perkin Elmer MicroBeta2 Reader. The data were analyzed with GraphPad Prism 5 to obtain binding IC50 values. The “Inhibition [% Control]” was calculated using the equation: % Inh=(1-Background subtracted Assay value/Background subtracted HC value)*100, where HC is high control.

Test [4] concerns the target adenosine A1 (human) membrane (Homo sapiens (Human), UniProt P30542). The test can be described thus: A1 adenosine receptor radioligand binding assay ([3H] DPCPX). As to conditions: 200 nM compound; radioligand [3H] DPCPX 1 nM. As for the experimental part:
A second A1 adenosine receptor radioligand binding assay protocol was used. The protocol used adenosine A1 (human) membrane (PerkinElmer ES-010-M400UA) at a concentration of 2.5 μg/well/100 μl and the radioligand [3H] DPCPX (Cat No. PerkinElmer-NET974250UC) at a final concentration of 1 nM. Testing compounds were tested at a final concentration of 200 nM. CGS-15943, the reference compound, was tested in an 8-point 4-fold serial dilution, starting at a top concentration of 1 μM. 1 μl of compounds/high control/low control was transferred to the assay plate according to a plate map, followed by 100 μl of membrane stocks and 100 μl of radioligand, in assay buffer (25 mM HEPES, 5 mM MgCl2, 1 mM CaCl2, 100 mM NaCl, pH 7.4). The plate was sealed and incubated at RT for 1 hour. Unifilter-96 GF/C filter plates (Perkin Elmer Cat #6005174) were soaked with 50 μl of 0.3% PEI per well for at least 0.5 hour at room temperature. When the binding assays were completed, the reaction mixtures were filtered through GF/C plates using Perkin Elmer Filtermate Harvester, and each plate washed 4 times with cold wash buffer (25 mM HEPES, 5 mM MgCl2, 1 mM CaCl2, 100 mM NaCl, pH 7.4). The filter plates were dried for 1 hour at 50 degrees. After drying, the bottom of the filter plate wells was sealed, 50 μl of Perkin Elmer Microscint 20 cocktail was added, and the top of the filter plate was sealed. ^3H trapped on the filter was counted using Perkin Elmer MicroBeta2 Reader. The data were analyzed with GraphPad Prism 5 to obtain binding IC50 values for the reference compound. The “Inhibition [% Control]” was calculated using the equation: % Inh=(1-Background subtracted Assay value/Background subtracted HC value)*100, where HC is high control.

pIC50: −log10 of the molar value.

As a reminder, the pIC50 is the negative decadic logarithm of the IC50, by convention in mol/L. What is called inhibition is the change of the read-out against control, counted positive when it falls. Low values mean little suppression, high ones strong suppression.

Chain of HEK-293 cells expressing human recombinant adenosine A2A receptor (P29274 whole entry): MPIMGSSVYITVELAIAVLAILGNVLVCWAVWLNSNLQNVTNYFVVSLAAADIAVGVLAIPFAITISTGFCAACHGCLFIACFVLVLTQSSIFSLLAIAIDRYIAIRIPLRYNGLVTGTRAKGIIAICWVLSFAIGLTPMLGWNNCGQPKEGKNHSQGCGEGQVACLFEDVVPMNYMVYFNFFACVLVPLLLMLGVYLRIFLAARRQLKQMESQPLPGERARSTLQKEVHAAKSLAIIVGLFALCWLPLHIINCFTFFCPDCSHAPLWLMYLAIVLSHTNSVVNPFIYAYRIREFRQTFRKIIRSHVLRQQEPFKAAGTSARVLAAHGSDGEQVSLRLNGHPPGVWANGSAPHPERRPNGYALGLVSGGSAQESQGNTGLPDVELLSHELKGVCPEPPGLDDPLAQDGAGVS
Chain of adenosine A2a (human) membrane (P29274 whole entry): as above
Chain of HEK-293 cells expressing human recombinant adenosine A1 receptor (P30542 whole entry): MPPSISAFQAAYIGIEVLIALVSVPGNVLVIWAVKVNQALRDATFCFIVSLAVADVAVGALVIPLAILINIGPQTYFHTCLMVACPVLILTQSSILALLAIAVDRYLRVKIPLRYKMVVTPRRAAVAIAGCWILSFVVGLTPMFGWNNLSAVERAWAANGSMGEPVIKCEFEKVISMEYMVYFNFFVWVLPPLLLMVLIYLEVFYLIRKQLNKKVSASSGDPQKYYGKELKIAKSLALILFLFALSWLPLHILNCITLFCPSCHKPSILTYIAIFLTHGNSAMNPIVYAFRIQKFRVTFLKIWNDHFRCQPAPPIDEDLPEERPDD
Chain of adenosine A1 (human) membrane (P30542 whole entry): as above

For `N#Cc1cccc(-c2nc(N)cnc2-c2cc(Cl)c3ncccc3c2)c1F` [2-10, 3-(6-amino-3-(8-chloroquinolin-6-yl)pyrazin-2-yl)-2-fluorobenzonitrile], the negative-log IC50 (pIC50) was 7.41 in test [1], 7.57 in test [2] and 8.51 in test [3]. The compound further showed an inhibition at 0.2 µM in test [4] of 79%.
The matching figures for `N#Cc1cccc(-c2nc(N)cnc2-c2cc(Cl)c3ncccc3c2)c1` [Compound No. 2-6, 3-(6-amino-3-(8-chloroquinolin-6-yl)pyrazin-2-yl)benzonitrile]: 7.36, 8.30, 8.43 and 90%.
On to `N#Cc1cccc(-c2nc(N)cnc2-c2cc(Cl)c3[nH]ncc3c2)c1` [Compound No. 2-7, 3-(6-amino-3-(7-chloro-1H-indazol-5-yl)pyrazin-2-yl)benzonitrile], for which the pIC50 in test [1] is 6.89. This compound also displayed an inhibition at 0.2 µM in test [4] of 81%.
With `N#Cc1cc(-c2nc(N)cnc2-c2cc(Cl)c3ncccc3c2)ccc1F` [Compound No. 2-13, 5-(6-amino-3-(8-chloroquinolin-6-yl)pyrazin-2-yl)-2-fluorobenzonitrile], the pIC50 in test [1] is 6.28. In addition, testing at 0.2 µM in test [4] gave an inhibition of 54%.
`C[C@@H](NC(=O)c1nc(-c2cc(Cl)c3ncccc3c2)c(-c2ccn(C)n2)nc1N)c1ccccn1` [Compound No. 100, (R)-3-amino-6-(8-chloroquinolin-6-yl)-5-(1-methyl-1H-pyrazol-3-yl)-N-(1-(pyridin-2-yl)ethyl)pyrazine-2-carboxamide]: the pIC50 in test [1] is 7.55; in test [2], 7.66; in test [3] it was 8.80. This compound also registered an inhibition at 0.2 µM in test [4] of 70%.
For the compound `Nc1nc(-c2ccc(F)cc2)c(-c2cc(Cl)c3ncccc3c2)nc1C(=O)NCCC1CCOCC1` [Compound No. 101, 3-amino-6-(8-chloroquinolin-6-yl)-5-(4-fluorophenyl)-N-(2-(tetrahydro-2H-pyran-4-yl)ethyl)pyrazine-2-carboxamide], the pIC50 in test [1] was 6.62. The same compound came in with an inhibition at 0.2 µM in test [4] of 66%.
Regarding `CC(NC(=O)c1nc(-c2cc(Cl)c3ncccc3c2)c(-c2ccc(F)cc2)nc1N)c1cccc(C#N)n1` (stereo not shown) [Compound No. 102, 3-amino-6-(8-chloroquinolin-6-yl)-N-(1-(6-cyanopyridin-2-yl)ethyl)-5-(4-fluorophenyl)pyrazine-2-carboxamide], the pIC50 was 6.84 in test [1], 7.62 in test [2] and 8.72 in test [3]. The compound also gave an inhibition at 0.2 µM in test [4] of 93%.
Regarding `CC(Oc1nc(-c2cc(Cl)c3ncccc3c2)c(-c2ccc(F)cc2)nc1N)c1ccccn1` (stereo not shown) [Compound No. 103, 5-(8-chloroquinolin-6-yl)-6-(4-fluorophenyl)-3-(1-(pyridin-2-yl)ethoxy)pyrazin-2-amine], the pIC50 in test [1] was 5.85. In test [4], this compound displayed an inhibition at 0.2 µM of 19%.
As to `C[C@@H](NC(=O)c1nc(-c2cc(Cl)c3[nH]ncc3c2)c(-c2ccc(F)cc2)nc1N)c1ccccn1` [Compound No. 104, (R)-3-amino-6-(7-chloro-1H-indazol-5-yl)-5-(4-fluorophenyl)-N-(1-(pyridin-2-yl)ethyl)pyrazine-2-carboxamide], the pIC50 in test [1] was 7.12; in test [2], 6.93; in test [3] it was 9.05. The same compound registered an inhibition at 0.2 µM in test [4] of 68%.
For `N#Cc1cccc(CNC(=O)c2nc(-c3cc(Cl)c4ncccc4c3)c(-c3ccc(F)cc3)nc2N)n1` [Compound No. 105, 3-amino-6-(8-chloroquinolin-6-yl)-N-((6-cyanopyridin-2-yl)methyl)-5-(4-fluorophenyl)pyrazine-2-carboxamide], the pIC50 in test [1] is 7.32; in test [2], 8.00; in test [3] it was 8.92. The compound also yielded an inhibition at 0.2 µM in test [4] of 94%.
With `C[C@@H](NC(=O)c1nc(-c2ccc3ncccc3c2)c(-c2ccn(C)n2)nc1N)c1ccccn1` [Compound No. 110, (R)-3-amino-5-(1-methyl-1H-pyrazol-3-yl)-N-(1-(pyridin-2-yl)ethyl)-6-(quinolin-6-yl)pyrazine-2-carboxamide], the results for the pIC50 in test [1] and in test [3] were 7.12 and 8.54, respectively. This compound also gave an inhibition at 0.2 µM in test [4] of 38%.
On the same counts, the results for `C[C@H](NC(=O)c1nc(-c2cc(Cl)c3ncccc3c2)c(-c2ccccc2)nc1N)c1cccc(C#N)n1` [Compound No. 122, (S)-3-amino-6-(8-chloroquinolin-6-yl)-N-(1-(6-cyanopyridin-2-yl)ethyl)-5-phenylpyrazine-2-carboxamide] are 7.48, greater than 9.22 and 96%.
Consider `C[C@@H](NC(=O)c1nc(-c2ccc3ncccc3c2)c(-c2ccccc2)nc1N)c1ncccn1` [Compound No. 125, (R)-3-amino-5-phenyl-N-(1-(pyrimidin-2-yl)ethyl)-6-(quinolin-6-yl)pyrazine-2-carboxamide], for which the values for the pIC50 in test [1] and in test [3] were 7.57 and 8.92, respectively.
`C[C@H](NC(=O)c1nc(-c2ccc3ncccc3c2)c(-c2ccccc2)nc1N)c1ncccn1` [Compound No. 126, (S)-3-amino-5-phenyl-N-(1-(pyrimidin-2-yl)ethyl)-6-(quinolin-6-yl)pyrazine-2-carboxamide]: the figures for the pIC50 in test [1] and in test [3] were 6.96 and 8.74, respectively. The inhibition at 0.2 µM in test [4] was found to be 41%.
With `Nc1nc(-c2ccccc2)c(-c2ccc3ncccc3c2)nc1C(=O)NCCC1CCOCC1` [compound 89, 3-amino-5-phenyl-6-(quinolin-6-yl)-N-(2-(tetrahydro-2H-pyran-4-yl)ethyl)pyrazine-2-carboxamide], the pIC50 in test [1] is 7.24; in test [3], 7.80.
For the compound `C[C@@H](NC(=O)c1nc(-c2cc(Cl)c3ncccc3c2)c(-c2ccc(F)cc2)nc1N)c1ccccn1` [compound 106, (R)-3-amino-6-(8-chloroquinolin-6-yl)-5-(4-fluorophenyl)-N-(1-(pyridin-2-yl)ethyl)pyrazine-2-carboxamide], the pIC50 in test [1] was 6.78. The inhibition at 0.2 µM in test [4] turned out to be 34%.
The matching figures for `CCN(CC)CCNC(=O)c1nc(-c2ccc3ncccc3c2)c(-c2ccccc2)nc1N` [compound 107, 3-amino-N-(2-(diethylamino)ethyl)-5-phenyl-6-(quinolin-6-yl)pyrazine-2-carboxamide]: 6.72 and 49%.

The record behind these values is US11306071B2, “Heterocyclic compounds as adenosine antagonists” (Nuvation Bio Inc., priority 2019, dated 2022).
